pIC50: −log10 of the molar value. Structures can show the parent of a compound that is named as a salt. Where two headings read alike, the source gives them in different places.

Broadly, the pIC50 is the negative decadic logarithm of the IC50, by convention in mol/L.

In the assay the target is human SARM1(50-724) (Homo sapiens (Human), UniProt Q6SZW1). The experiment in a line: SARM1 NAD hydrolase biological assay (HPLC readout of NAD and NAM peak areas). Format: biochemical. The method, then: The reaction was incubated at room temperature for 60 minutes and quenched with 20 μL of 0.4% formic acid. […] Total run time for each sample was 4 minutes. The run was isocratic with 1.5% methanol in 40 mM ammonium acetate pH 6.0. Samples were run at a flow rate of 0.8 ml/min at 55° C. Peak areas of NAD and NAM were determined using OpenLAB CDS (Chem Station edition) software. For dose-response, the compound was diluted serially 1:3 in DMSO and added to the reaction starting at a final compound concentration of 100 μM in 1% DMSO.

The mark [1] stands for this setting: 40 nM human SARM1(50-724), 0.3 mM NMN, 20 μM NAD, 60 minutes at room temperature, class symbols, read-out: Average IC50.
Where [2] appears, read: 40 nM human SARM1(50-724), 0.3 mM NMN, 20 μM NAD, 60 minutes at room temperature, given as numeric bound, read-out: Average IC50.

Sequence of human SARM1(50-724) (Q6SZW1 50-724): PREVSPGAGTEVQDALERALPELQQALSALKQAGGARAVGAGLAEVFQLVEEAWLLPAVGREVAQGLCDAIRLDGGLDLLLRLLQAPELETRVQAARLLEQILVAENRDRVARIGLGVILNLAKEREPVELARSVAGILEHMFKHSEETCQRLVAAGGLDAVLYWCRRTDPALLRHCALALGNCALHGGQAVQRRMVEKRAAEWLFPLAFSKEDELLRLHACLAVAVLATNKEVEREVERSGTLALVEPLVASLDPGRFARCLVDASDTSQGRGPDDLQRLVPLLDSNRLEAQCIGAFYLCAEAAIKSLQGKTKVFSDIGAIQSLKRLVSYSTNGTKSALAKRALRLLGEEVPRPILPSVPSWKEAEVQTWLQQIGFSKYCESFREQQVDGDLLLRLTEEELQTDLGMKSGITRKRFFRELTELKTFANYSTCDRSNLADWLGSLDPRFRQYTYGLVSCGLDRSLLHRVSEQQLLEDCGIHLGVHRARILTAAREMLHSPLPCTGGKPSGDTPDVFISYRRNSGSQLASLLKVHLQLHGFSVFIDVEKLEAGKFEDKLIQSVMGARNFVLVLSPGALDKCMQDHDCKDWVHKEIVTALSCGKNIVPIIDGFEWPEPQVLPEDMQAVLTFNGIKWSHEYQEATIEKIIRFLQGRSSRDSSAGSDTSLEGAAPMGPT

Take `ON=C(c1ncc(Cc2ccncc2)[nH]1)C(F)(F)F` (mixture of isomers) [Example 13, (E/Z)-2,2,2-Trifluoro-1-(5-(pyridin-4-ylmethyl)-1H-imidazol-2-yl)ethan-1-one oxime]: the negative logarithm of the IC50 (pIC50) under setting [1] was 5.00 to 6.00.

As to `ON=C(c1nc(Cc2ccncc2)cs1)C(F)(F)F` (mixture of isomers) [Example 18, (E/Z)-2,2,2-Trifluoro-1-(4-(pyridin-4-ylmethyl)thiazol-2-yl)ethan-1-one oxime], the negative-log IC50 (pIC50) under setting [2] is less than 4.00.

As to `CC(c1ccncc1)c1c[nH]c(CC(F)(F)F)n1` (racemic) [Example 5, (rac)-4-(1-(2-(2,2,2-Trifluoroethyl)-1H-imidazol-4-yl)ethyl)pyridine], under setting [1], the negative logarithm of the IC50 (pIC50) was greater than 6.00.

In the case of `CC(c1ccncc1)c1ccc(CC(F)(F)F)[nH]1` (racemic) [Example 11, (rac)-4-(1-(5-(2,2,2-Trifluoroethyl)-1H-pyrrol-2-yl)ethyl)pyridine], under setting [1], the pIC50 was 5.00 to 6.00.

Turning to `Cc1cnccc1Cc1c[nH]c(C(O)c2cncs2)n1` (racemic) [Example 21, (rac)-(5-((3-Methylpyridin-4-yl)methyl)-1H-imidazol-2-yl)(thiazol-5-yl)methanol], the pIC50 under setting [1] is 4.00 to 5.00.

In the case of `OC(c1nc(Cc2ccncc2Cl)c[nH]1)C(F)(F)F` (racemic) [Example 23, (rac)-1-(4-((3-Chloropyridin-4-yl)methyl)-1H-imidazol-2-yl)-2,2,2-trifluoroethan-1-ol], under setting [1], the negative-log IC50 (pIC50) is greater than 6.00.

Turning to `OC(c1ccccn1)c1ncc(Cc2ccncc2)[nH]1` (racemic) [Example 35, (rac)-Pyridin-2-yl(5-(pyridin-4-ylmethyl)-1H-imidazol-2-yl)methanol], the pIC50 under setting [1] was 5.00 to 6.00.

Regarding `CC(O)(c1nc(Cc2ccncc2)c[nH]1)C(F)(F)F` (racemic) [Example 40, (rac)-1,1,1-Trifluoro-2-(4-(pyridin-4-ylmethyl)-1H-imidazol-2-yl)propan-2-ol], the pIC50 under setting [1] was 5.00 to 6.00.

As to `C[C@@H](c1ccncc1)c1c[nH]c(CC(F)(F)F)n1` (single isomer, unassigned) [Example 5a], under setting [1], the pIC50 was greater than 6.00.

As to `C[C@H](c1ccncc1)c1c[nH]c(CC(F)(F)F)n1` (single isomer, unassigned) [Example 5b], the pIC50 under setting [1] is 5.00 to 6.00.

Turning to `O[C@@H](c1ncc(Cc2ccncc2)[nH]1)C(F)(F)F` (single isomer, unassigned) [Example 7], the negative-log IC50 (pIC50) under setting [1] is greater than 6.00.

As to `O[C@H](c1ncc(Cc2ccncc2)[nH]1)C(F)(F)F` (single isomer, unassigned) [Example 7a], the pIC50 under setting [1] is greater than 6.00.

Regarding `NC(c1nc(Cc2ccncc2)c[nH]1)C(F)(F)F` (single isomer, unassigned) [Example 15], the pIC50 under setting [1] is 5.00 to 6.00.

On to `N[C@H](c1nc(Cc2ccncc2)c[nH]1)C(F)(F)F` (single isomer, unassigned) [Example 15a], for which the pIC50 under setting [1] was greater than 6.00.

On to `CNC(c1ncc(Cc2ccncc2)[nH]1)C(F)(F)F` (single isomer, unassigned) [Example 16], for which the pIC50 under setting [1] was 5.00 to 6.00.

For `CN[C@H](c1ncc(Cc2ccncc2)[nH]1)C(F)(F)F` (single isomer, unassigned) [Example 16a], the pIC50 under setting [1] was 5.00 to 6.00.

Turning to `CN(C)C(c1ncc(Cc2ccncc2)[nH]1)C(F)(F)F` (single isomer, unassigned) [Example 17], the negative-log IC50 (pIC50) under setting [1] is 4.00 to 5.00.

As for `CN(C)[C@H](c1ncc(Cc2ccncc2)[nH]1)C(F)(F)F` (single isomer, unassigned) [Example 17a], under setting [1], the pIC50 is 5.00 to 6.00.

Consider `NC(c1nc(Cc2ccncc2)cs1)C(F)(F)F` (single isomer, unassigned) [Example 19], for which the pIC50 under setting [1] is 4.00 to 5.00.

Regarding `OC(c1nc(Cc2ccncc2)c[nH]1)c1cncs1` (single isomer, unassigned) [Example 20], the negative logarithm of the IC50 (pIC50) under setting [1] is 5.00 to 6.00.

For the compound `O[C@H](c1nc(Cc2ccncc2)c[nH]1)c1cncs1` (single isomer, unassigned) [Example 20a], the negative logarithm of the IC50 (pIC50) under setting [1] was greater than 6.00.

Consider `C[C@@H](c1ccncc1)c1c[nH]c([C@H](O)C(F)(F)F)n1` (single isomer, unassigned) [Example 24], for which the pIC50 under setting [1] was greater than 6.00.

For `C[C@H](c1ccncc1)c1c[nH]c([C@@H](O)C(F)(F)F)n1` (single isomer, unassigned) [Example 24a], under setting [1], the pIC50 is 4.00 to 5.00.

For the compound `C[C@H](c1ccncc1)c1c[nH]c([C@H](O)C(F)(F)F)n1` (single isomer, unassigned) [Example 24b], the negative logarithm of the IC50 (pIC50) under setting [1] is greater than 6.00.

With `C[C@@H](c1ccncc1)c1c[nH]c([C@@H](O)C(F)(F)F)n1` (single isomer, unassigned) [Example 24c], under setting [2], the negative logarithm of the IC50 (pIC50) was less than 4.30.

Turning to `OC(c1ncc(Cc2ccncc2)[nH]1)(c1cncs1)C(F)(F)F` (single isomer, unassigned) [Example 26], under setting [1], the pIC50 is 4.00 to 5.00.

`O[C@](c1ncc(Cc2ccncc2)[nH]1)(c1cncs1)C(F)(F)F` (single isomer, unassigned) [Example 26a]: the negative logarithm of the IC50 (pIC50) under setting [1] is greater than 6.00.

For `Cc1cnccc1Cc1cnc([C@H](O)c2cncs2)[nH]1` (single isomer, unassigned) [Example 30], the negative-log IC50 (pIC50) under setting [1] is 4.00 to 5.00.

As to `Cc1cnccc1Cc1cnc([C@@H](O)c2cncs2)[nH]1` (single isomer, unassigned) [Example 30a], the pIC50 under setting [1] is 5.00 to 6.00.

As for `O[C@H](c1ncc(Cc2ccncc2)[nH]1)c1nccs1` (single isomer, unassigned) [Example 31], the negative-log IC50 (pIC50) under setting [2] is less than 4.30.

As for `O[C@@H](c1ncc(Cc2ccncc2)[nH]1)c1nccs1` (single isomer, unassigned) [Example 31a], the pIC50 under setting [1] was 5.00 to 6.00.

On to `C[C@@](O)(c1ncc(Cc2ccncc2)[nH]1)C(F)(F)F` (single isomer, unassigned) [Example 32], for which the negative logarithm of the IC50 (pIC50) under setting [1] is greater than 6.00.

Take `C[C@](O)(c1ncc(Cc2ccncc2)[nH]1)C(F)(F)F` (single isomer, unassigned) [Example 32a]: the pIC50 under setting [1] was 5.00 to 6.00.

For `CO[C@@H](c1ncc(Cc2ccncc2)[nH]1)C(F)(F)F` (single isomer, unassigned) [Example 33], under setting [1], the negative logarithm of the IC50 (pIC50) was 5.00 to 6.00.

With `COC(c1ncc(Cc2ccncc2)[nH]1)C(F)(F)F` (single isomer, unassigned) [Example 33a], the negative logarithm of the IC50 (pIC50) under setting [1] is 5.00 to 6.00.

`O[C@H](c1ncc(Cc2ccnc(F)c2)[nH]1)C(F)(F)F` (single isomer, unassigned) [Example 34]: under setting [2], the pIC50 is less than 4.00.

Consider `O[C@@H](c1ncc(Cc2ccnc(F)c2)[nH]1)C(F)(F)F` (single isomer, unassigned) [Example 34a], for which, under setting [2], the pIC50 was less than 4.00.

For the compound `Cc1cnccc1Cc1c[nH]c(C(O)C(F)(F)F)n1` (single isomer, unassigned) [Example 37], under setting [1], the pIC50 was 5.00 to 6.00.

On to `Cc1cnccc1Cc1c[nH]c([C@@H](O)C(F)(F)F)n1` (single isomer, unassigned) [Example 37a], for which the pIC50 under setting [1] was greater than 6.00.

For the compound `O[C@@H](c1nc(Cc2ccncc2F)c[nH]1)C(F)(F)F` (single isomer, unassigned) [Example 38], the negative logarithm of the IC50 (pIC50) under setting [1] is greater than 6.00.

`O[C@H](c1nc(Cc2ccncc2F)c[nH]1)C(F)(F)F` (single isomer, unassigned) [Example 38a]: the pIC50 under setting [1] is 5.00 to 6.00.

For `FC(F)(F)Cc1nc(Cc2ccncc2)c[nH]1` [Example 1, 4-((2-(2,2,2-Trifluoroethyl)-1H-imidazol-4-yl)methyl)pyridine], the pIC50 under setting [1] was greater than 6.00.

Take `FC(F)(F)CCc1nc(Cc2ccncc2)c[nH]1` [Example 2, 4-((2-(3,3,3-trifluoropropyl)-1H-imidazol-4-yl)methyl)pyridine]: the pIC50 under setting [1] was 5.00 to 6.00.

For the compound `N#CCc1nc(Cc2ccncc2)c[nH]1` [Example 3, 2-(4-(Pyridin-4-ylmethyl)-1H-imidazol-2-yl)acetonitrile], the negative-log IC50 (pIC50) under setting [1] is greater than 6.00.

In turn, `N#CCCc1nc(Cc2ccncc2)c[nH]1` [Example 4, 3-(4-(Pyridin-4-ylmethyl)-1H-imidazol-2-yl)propanenitrile] showed a negative logarithm of the IC50 (pIC50) of 5.00 to 6.00.

In the case of `c1cc(Cc2c[nH]c(Cc3cncs3)n2)ccn1` [Example 6, 5-((4-(Pyridin-4-ylmethyl)-1H-imidazol-2-yl)methyl)thiazole], the pIC50 under setting [1] is greater than 6.00.

`FC(F)(F)Cc1nc(Cc2ccncc2)n[nH]1` [Example 8, 4-((5-(2,2,2-Trifluoroethyl)-1H-1,2,4-triazol-3-yl)methyl)pyridine]: under setting [1], the pIC50 was 4.00 to 5.00.

`FC(F)(F)Cc1csc(Cc2ccncc2)n1` [Example 9, 2-(Pyridin-4-ylmethyl)-4-(2,2,2-trifluoroethyl)thiazole]: the pIC50 under setting [1] is 5.00 to 6.00.

`FC(F)(F)Cc1nc(Cc2ccncc2)cs1` [Example 10, 4-(Pyridin-4-ylmethyl)-2-(2,2,2-trifluoroethyl)thiazole]: the negative-log IC50 (pIC50) under setting [1] is 5.00 to 6.00.

With `O=C(c1ncc(Cc2ccncc2)[nH]1)C(F)(F)F` [Example 12, 2,2,2-Trifluoro-1-(5-(pyridin-4-ylmethyl)-1H-imidazol-2-yl)ethan-1-one hydrochloride], the pIC50 under setting [1] is greater than 6.00.

As for `Cc1[nH]c(CC(F)(F)F)nc1Cc1ccncc1` [Example 14, 4-((5-Methyl-2-(2,2,2-trifluoroethyl)-1H-imidazol-4-yl)methyl)pyridine], the negative logarithm of the IC50 (pIC50) under setting [1] was 4.00 to 5.00.

For the compound `N[C@@H](c1nc(Cc2ccncc2)cs1)C(F)(F)F` [Example 19a], the pIC50 under setting [1] was 5.00 to 6.00.

`FC(F)(F)Cc1ncc(Cc2c(Cl)cncc2Cl)[nH]1` [Example 22, 3,5-Dichloro-4-((2-(2,2,2-trifluoroethyl)-1H-imidazol-5-yl)methyl)pyridine]: the pIC50 under setting [1] was 4.00 to 5.00.

Turning to `Cc1cnccc1Cc1c[nH]c(CC(F)(F)F)n1` [Example 25, 3-Methyl-4-((2-(2,2,2-trifluoroethyl)-1H-imidazol-4-yl)methyl)pyridine], under setting [1], the negative-log IC50 (pIC50) was greater than 6.00.

Values taken from patent publication US11629136B1, “Substituted pyridine derivatives as SARM1 inhibitors” (Nura Bio, Inc., priority 2021, dated 2023).
